Assay results as given in patent publication US8735414B2 (priority 2009, dated 2014).

Key:
[1] = tested on: bicistronic HCV replicon (replicon RNA, GenBank Accession No. AJ242654); assay: HCV Replicon Assay; type: cell-based; conditions: Hepatitis C virus, 72 h, read-out: Replicon IC50

Compound | IC50 [1] [nM] | melting point [°C]
N#Cc1c(-c2ccc(S(=O)(=O)NC(CF)CF)cn2)n(-c2ccccc2)c2ccc(Cl)cc12 [compound 112, 6-(5-chloro-3-cyano-1-phenyl-1H-indol-2-yl)-N-(1,3-difluoropropan-2-yl)pyridine-3-sulfonamide] | < 500 | 192 to 196
N#Cc1c(-c2ccc(S(=O)(=O)NC(CF)CF)cn2)n(C2CCCC2)c2cc(OC(F)F)ccc12 [compound 49, 6-[3-cyano-1-cyclopentyl-6-(difluoromethoxy)-1H-indol-2-yl]-N-(1,3-difluoropropan-2-yl)pyridine-3-sulfonamide] | < 500 | 177 to 178
N#Cc1c(-c2ccc(S(=O)(=O)NC(CF)CF)cn2)n(C2CCC2)c2cc(N3CCOCC3)ccc12 [compound 322, 6-[3-cyano-1-cyclobutyl-6-(morpholin-4-yl)-1H-indol-2-yl]-N-(1,3-difluoropropan-2-yl)pyridine-3-sulfonamide] | 2000 to 5000 | 241 to 242
Cc1ccc2c(c1F)c(C#N)c(-c1ccc(S(=O)(=O)N[C@@H](C)C(F)(F)F)cn1)n2C1CCCC1 [compound 615, 6-(3-cyano-1-cyclopentyl-4-fluoro-5-methyl-1H-indol-2-yl)-N-[(2S)-1,1,1-trifluoropropan-2-yl]pyridine-3-sulfonamide] | < 500 | 186 to 197
CCCS(=O)(=O)Nc1ccc(-c2c(C#N)c3ccc(Oc4ncccn4)cc3n2C2CCC2)nc1 [compound 271, N-{6-[3-cyano-1-cyclobutyl-6-(pyrimidin-2-yloxy)-1H-indol-2-yl]pyridin-3-yl}propane-1-sulfonamide] | 500 to 2000 | 206 to 208
CC(C)NS(=O)(=O)c1cnc(-c2c(C#N)c3ccc(OC(F)F)cc3n2C2CCCCC2)nc1 [compound 473, 2-[3-cyano-1-cyclohexyl-6-(difluoromethoxy)-1H-indol-2-yl]-N-(propan-2-yl)pyrimidine-5-sulfonamide] | < 500 | 176 to 179
Cc1cc2c(cc1F)c(C#N)c(-c1ccc(S(=O)(=O)NC3(C(F)(F)F)CC3)cn1)n2C1CCC1 [compound 613, 6-(3-cyano-1-cyclobutyl-5-fluoro-6-methyl-1H-indol-2-yl)-N-[1-(trifluoromethyl)cyclopropyl]pyridine-3-sulfonamide] | < 500 | 223 to 232
Cc1cc2c(cc1Cl)c(C#N)c(-c1ccc(S(=O)(=O)NC(CF)CF)cn1)n2C1CCC1 [compound 444, 6-(5-chloro-3-cyano-1-cyclobutyl-6-methyl-1H-indol-2-yl)-N-(1,3-difluoropropan-2-yl)pyridine-3-sulfonamide] | < 500 | 189 to 193
CC(C)NS(=O)(=O)c1cnc(-c2c(C#N)c3ccc(F)cc3n2C2CCCCC2)nc1 [compound 251, 2-(3-cyano-1-cyclohexyl-6-fluoro-1H-indol-2-yl)-N-(propan-2-yl)pyrimidine-5-sulfonamide] | 500 to 2000 | 200 to 202
C[C@@H](NS(=O)(=O)c1ccc(-c2c(C#N)c3ccc(OC(F)F)cc3n2C2CCCCC2)nc1)C(F)(F)F [compound 195, 6-[3-cyano-1-cyclohexyl-6-(difluoromethoxy)-1H-indol-2-yl]-N-[(2R)-1,1,1-trifluoropropan-2-yl]pyridine-3-sulfonamide] | < 500 | 170 to 172
C[C@H](NS(=O)(=O)c1ccc(-c2c(C#N)c3cc(F)ccc3n2CC2CC2)nc1)C(F)(F)F [compound 436, 6-[3-cyano-1-(cyclopropylmethyl)-5-fluoro-1H-indol-2-yl]-N-[(2S)-1,1,1-trifluoropropan-2-yl]pyridine-3-sulfonamide] | < 500 | 165 to 167
Cc1cc2c(cc1F)c(C#N)c(-c1ccc(S(=O)(=O)N[C@@H](C)C(F)(F)F)cn1)n2-c1occc1C#N [compound 1072, 6-[3-cyano-1-(3-cyanofuran-2-yl)-5-fluoro-6-methyl-1H-indol-2-yl]-N-[(2S)-1,1,1-trifluoropropan-2-yl]pyridine-3-sulfonamide] | 500 to 2000 | 238 to 243.6
Cc1cc(F)c2c(C#N)c(-c3ccc(S(=O)(=O)NC(C)(C)C(F)(F)F)cn3)n(C3CCCC3)c2c1 [compound 626, 6-(3-cyano-1-cyclopentyl-4-fluoro-6-methyl-1H-indol-2-yl)-N-(1,1,1-trifluoro-2-methylpropan-2-yl)pyridine-3-sulfonamide] | < 500 | 218 to 223
C[C@H](NS(=O)(=O)c1ccc(-c2c(C#N)c3ccc(OC(F)F)cc3n2C2CCCC2)nc1)C(F)(F)F [compound 589, 6-[3-cyano-1-cyclopentyl-6-(difluoromethoxy)-1H-indol-2-yl]-N-[(2S)-1,1,1-trifluoropropan-2-yl]pyridine-3-sulfonamide] | < 500 | 188 to 194
COc1cc2c(C#N)c(-c3ccc(S(=O)(=O)N[C@H](C)C(F)(F)F)cn3)n(C3CCCC3)c2cc1C [compound 694, 6-(3-cyano-1-cyclopentyl-5-methoxy-6-methyl-1H-indol-2-yl)-N-[(2R)-1,1,1-trifluoropropan-2-yl]pyridine-3-sulfonamide] | 2000 to 5000 | 210.5 to 211
CC(C)NS(=O)(=O)c1cnc(-c2c(C(N)=O)c3ccc(Cl)cc3n2C2CCC2)nc1 [compound 780, 6-chloro-1-cyclobutyl-2-[5-(propan-2-ylsulfamoyl)pyrimidin-2-yl]-1H-indole-3-carboxamide] | < 500 | 251 to 253
Cc1ccc2c(C#N)c(-c3ccc(S(=O)(=O)NC4(C(F)(F)F)CC4)cn3)n(CC3CC3)c2c1 [compound 255, 6-[3-cyano-1-(cyclopropylmethyl)-6-methyl-1H-indol-2-yl]-N-[1-(trifluoromethyl)cyclopropyl]pyridine-3-sulfonamide] | < 500 | 191 to 195
C[C@H](NS(=O)(=O)c1ccc(-c2c(C#N)c3cc(F)c(C4CC4)cc3n2-c2ccccn2)nc1)C(F)(F)F [compound 819, 6-[3-cyano-6-cyclopropyl-5-fluoro-1-(pyridin-2-yl)-1H-indol-2-yl]-N-[(2S)-1,1,1-trifluoropropan-2-yl]pyridine-3-sulfonamide] | < 500 | 220 to 223
CC(C)NS(=O)(=O)c1cnc(-c2c(C#N)c3cc(Cl)ccc3n2C2CCCC2)nc1 [compound 314, 2-(5-chloro-3-cyano-1-cyclopentyl-1H-indol-2-yl)-N-(propan-2-yl)pyrimidine-5-sulfonamide] | < 500 | 239 to 245
CC(C)NS(=O)(=O)c1cnc(-c2c(C#N)c3cc(Cl)ccc3n2C2CCCCC2)nc1 [compound 97, 2-(5-chloro-3-cyano-1-cyclohexyl-1H-indol-2-yl)-N-(propan-2-yl)pyrimidine-5-sulfonamide] | 500 to 2000 | 210 to 215
CC(C)(C)NS(=O)(=O)c1ccc(-c2c(C#N)c3cc(OC(F)F)ccc3n2C2CCC2)nc1 [compound 20, N-tert-butyl-6-[3-cyano-1-cyclobutyl-5-(difluoromethoxy)-1H-indol-2-yl]pyridine-3-sulfonamide] | 500 to 2000 | 167 to 170
Cc1cc2c(cc1O)c(C#N)c(-c1ccc(S(=O)(=O)N[C@@H](C)C(F)(F)F)cn1)n2C1CCCC1 [compound 691, 6-(3-cyano-1-cyclopentyl-5-hydroxy-6-methyl-1H-indol-2-yl)-N-[(2S)-1,1,1-trifluoropropan-2-yl]pyridine-3-sulfonamide] | < 500 | 232 to 233
Cc1ccc2c(c1)c(C#N)c(-c1ccc(S(=O)(=O)NC(CF)CF)cn1)n2CC1CC1 [compound 373, 6-[3-cyano-1-(cyclopropylmethyl)-5-methyl-1H-indol-2-yl]-N-(1,3-difluoropropan-2-yl)pyridine-3-sulfonamide] | < 500 | 186 to 188
Cc1cc2c(cc1F)c(C(=O)O)c(-c1ccc(S(=O)(=O)NC3(C(F)(F)F)CC3)cn1)n2C1CCCCC1 [compound 835, 1-cyclohexyl-5-fluoro-6-methyl-2-(5-{[1-(trifluoromethyl)cyclopropyl]sulfamoyl}pyridin-2-yl)-1H-indole-3-carboxylic acid] | < 500 | 205 to 213
C[C@H](NS(=O)(=O)c1ccc(-c2c(C#N)c3cc(Cl)ccc3n2-c2ccccn2)nc1)C1CC1 [compound 490, 6-[5-chloro-3-cyano-1-(pyridin-2-yl)-1H-indol-2-yl]-N-[(1S)-1-cyclopropylethyl]pyridine-3-sulfonamide] | 2000 to 5000 | 136 to 139
CCc1cc2c(cc1F)c(C(N)=O)c(-c1ccc(S(=O)(=O)NC(C)(C)C(F)(F)F)cn1)n2C1CCCC1 [compound 871, 1-cyclopentyl-6-ethyl-5-fluoro-2-{5-[(1,1,1-trifluoro-2-methylpropan-2-yl)sulfamoyl]pyridin-2-yl}-1H-indole-3-carboxamide] | < 500 | 185 to 188
CCc1cc(F)c2c(C(N)=O)c(-c3ccc(NS(=O)(=O)C(C)(C)C)nc3)n(C3CCC3)c2c1 [compound 1118, 2-{6-[(tert-butylsulfonyl)amino]pyridin-3-yl}-1-cyclobutyl-6-ethyl-4-fluoro-1H-indole-3-carboxamide] | < 500 | 263 to 268
CNC(=O)c1c(-c2ccc(S(=O)(=O)NC(C)(C)C)cn2)n(C2CCC2)c2cc(C)c(F)cc12 [compound 795, 2-[5-(tert-butylsulfamoyl)pyridin-2-yl]-1-cyclobutyl-5-fluoro-N,6-dimethyl-1H-indole-3-carboxamide] | < 500 | 215 to 218
Cc1cc2c(cc1F)c(C(N)=O)c(-c1ccc(S(N)(=O)=O)cn1)n2C1CCCCC1 [compound 715, 1-cyclohexyl-5-fluoro-6-methyl-2-(5-sulfamoylpyridin-2-yl)-1H-indole-3-carboxamide] | < 500 | 254 to 257
